Test results as given in US9775915B2, “Trioxacarcins, trioxacarcin-antibody conjugates, and uses thereof” (President and Fellows of Harvard College, priority 2012, dated 2017).
“Also recorded” adds a separate entry of the source.

Experiments:
H460 cells = assay: Cell proliferation assay (CellTiter-Blue resazurin), H460 cells; assay type: cell-based; conditions: 72 h incubation
Description: H460 cells were purchased from American Type Culture Collection (ATCC).
A suspension of H460 cells (3000 cells/well) in growth medium was seeded onto a 96-well plate. The 96-well plate was incubated for 24 h at 37° C. […] After incubating at 37° C. for 72 h, 20 μL of resazurin solution (Promega CellTiter-Blue® Cell Viability Assay) was added to each well. […] Percent growth inhibition was calculated for each well, based upon the following formula: Percent growth inhibition=100×(S−B0)/(Bt−B0); where S is the sample fluorescence, Bt is the average fluorescence for a vehicle-treated population of cells at the completion of the assay, and B0 is the average fluorescence for an untreated population of cells at the beginning of the assay. The average percent inhibition at each concentration was plotted against log(concentration), and a curve fit was generated using a four-parameter logistic equation.

[1] = system: lung (LXFL 529L, H-460), mammary (MCF-7), and CNS (SF-268) cancer cell lines; conditions: human cancer cell lines; Maskey et al. 2004; cited from earlier work
[2] = Chemical stability (base, aqueous or alcoholic solvents); assay type: physicochemical; conditions: basic conditions in aqueous or alcoholic solvents
[3] = system: H460, T-47D, HEK293, N87, MDA-MB-361/DYT2, HT-29, HL-60 and HEL 92.1.7 cells; assay: Growth inhibition (GI50) comparison of trioxacarcins, FIG. 10 cell line panel; assay type: cell-based; conditions: structure-activity comments on FIG. 10
Description: Cell Proliferation Assay. A suspension of H460 cells (3000 cells/well) in growth medium was seeded onto a 96-well plate. The 96-well plate was incubated for 24 h at 37° C. Stock solutions of each compound were diluted serially and the resulting solutions were administrated to cells to achieve final concentrations of 110 pM to 250 nM (trioxacarcin A) or 1.1 nM to 2.5 μM (all other compounds). After incubating at 37° C. for 72 h, 20 μL of resazurin solution (Promega CellTiter-Blue® Cell Viability Assay) was added to each well. After incubating at 37° C. for 2.0 h, the fluorescence (560 nm excitation/590 nm emission) was recorded using a microplate reader (SpectraMax PLUS^384) as a measure of viable cells. Percent growth inhibition was calculated for each well, based upon the following formula: Percent growth inhibition=100×(S−B0)/(Bt−B0); where S is the sample fluorescence, Bt is the average fluorescence for a vehicle-treated population of cells at the completion of the assay, and B0 is the average fluorescence for an untreated population of cells at the beginning of the assay. The average percent inhibition at each concentration was plotted against log(concentration), and a curve fit was generated using a four-parameter logistic equation. GI50 values were computed to reflect the concentrations at which the resulting curves pass through 50% inhibition. […]

Row | GI50 (H460 cells) | stability under basic conditions [2] | SMILES | IC70 [1] | antiproliferative activity (in words, FIG. 10) [3]
1 | 0.85 ± 0.36 nM | unstable | COc1c2c(c(O)c3c4c(c(C)cc13)[C@@H]1O[C@@]3(C(OC)OC)O[C@@H]1[C@@](O[C@H]1C[C@@H](O)[C@@](O)(C(C)=O)[C@H](C)O1)(O4)[C@@]31CO1)C(=O)[C@@H](O)C[C@@H]2O[C@H]1C[C@@](C)(O)[C@H](OC(C)=O)[C@H](C)O1 [trioxacarcin A] | subnanomolar; also recorded: subnanmolar | –
2 | – | – | COc1c2c(c(O)c3c4c(c(C)cc13)[C@@H]1O[C@@]3(C(OC)OC)O[C@@H]1[C@@](O)(O4)[C@@]31CO1)C(=O)[C@@H](O)C[C@@H]2O[C@H]1C[C@@](C)(O)[C@H](OC(C)=O)[C@H](C)O1 [DC-45-A1] | – | highly potent antiproliferative agents
